IC50 data for 15 compounds are collected here from BindingDB's records for patent US11583538 (Venenum Biodesign, 2023).

The target in this experiment is T1, Three-prime repair exonuclease 1 (Homo sapiens, UniProt Q9NSU2).
T1 sequence (Q9NSU2 whole entry): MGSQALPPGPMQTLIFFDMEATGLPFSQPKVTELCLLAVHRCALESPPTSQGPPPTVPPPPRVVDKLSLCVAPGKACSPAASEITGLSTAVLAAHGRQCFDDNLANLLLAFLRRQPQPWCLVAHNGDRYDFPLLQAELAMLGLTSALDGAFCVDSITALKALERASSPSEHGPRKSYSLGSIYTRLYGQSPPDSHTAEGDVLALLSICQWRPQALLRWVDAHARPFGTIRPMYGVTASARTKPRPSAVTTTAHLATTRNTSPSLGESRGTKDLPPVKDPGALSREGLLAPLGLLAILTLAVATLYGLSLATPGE
The experiment is described as follows: TREX1 Exonuclease Assay. The protocol: For human TREX1, the nucleotide sequence of the gene construct was codon optimized for expression in the bacterial host. The sequence was incorporated into the pMAL-c5e vector (NEB) downstream of a solubility-promoting MBP (maltose binding protein) fusion partner. The fusion protein product was expressed in E. coli strain BL21 (DE3) (Millipore) and purified in a series of chromatographic steps. Initial steps were conducted using a dextrin sepharose affinity column followed by a Q-sepharose ion exchange column (both GE Healthcare). After the second column the MBP partner was removed by incubation with enterokinase (NEB). Further purification was carried out with the second application of a Q-sepharose column followed by a Superdex 75 (GE Healthcare) size exclusion column. Finally, a heparin sepharose column (GE Healthcare) was applied to remove contaminating nucleotides. […] Next, 4 μL of human TREX1 (0.5 nM), or murine TREX1 (1 nM), diluted in assay buffer (20 mM Tris pH 7.5, 5 mM MgCl, 100 μg/mL BSA, 0.002% Triton X-100, 2 mM DTT), was added to the assay plate. After incubating for 30 minutes, 4 μL of labeled DNA oligonucleotide (500 nM) in assay buffer was added to initiate TREX1 exonuclease activity. The reaction was allowed to proceed for 45 minutes at room temperature prior to the addition of 4 μL of 150 mM EDTA to halt TREX1 activity.
With `COC(=O)CC[C@H](C(=O)NCc1ccc(Cl)c(Cl)c1)N1CCC(COc2ccc(F)cc2)N2C[C@H](N)C[C@H]2C1=O` (stereo not given in full) [US11583538, Example 91], the IC50 (in general, the midpoint of a concentration-inhibition curve) is < 1 µM.

In the case of `N[C@@H]1C[C@H]2C(=O)N([C@@H](CCC(=O)O)C(=O)NCc3ccc(Cl)c(Cl)c3)CCC(CCc3ccccc3)N2C1` (stereo not given in full) [US11583538, Example 29], the IC50 is < 1 µM.

As for `CCOC(=O)CC[C@H](C(=O)NCc1ccc(Cl)c(Cl)n1)N1CCC(CCc2ccccc2)N2C[C@H](N)C[C@H]2C1=O` (stereo not given in full) [US11583538, Example 95], the IC50 is < 1 µM.

Take `N[C@@H]1C[C@H]2C(=O)N([C@H](CCC(=O)NO)C(=O)NCc3ccc(Cl)c(Cl)c3)CCC(COc3cccc(F)c3)N2C1` (stereo not given in full) [US11583538, Example 114]: the IC50 is < 1 µM.

For `CCOC(=O)CC[C@H](C(=O)NCc1ccc(Cl)c(Cl)c1F)N1CCC(CCc2ccccc2)N2C[C@H](N)C[C@H]2C1=O` (stereo not given in full) [US11583538, Example 93], the IC50 is < 1 µM.

Turning to `N[C@@H]1C[C@H]2C(=O)N([C@@H]3CCCN(S(=O)(=O)c4ccc(Cl)c(Cl)c4)C3)CCC(CCc3ccccc3)N2C1` (stereo not given in full) [US11583538, Example 83], the IC50 is < 1 µM.

Take `N[C@@H]1C[C@H]2C(=O)N([C@H](CCNC(=O)C3CC3)C(=O)NCc3ccc(Cl)c(Cl)c3)CCC(CCc3ccccc3)N2C1` (stereo not given in full) [US11583538, Example 130]: the IC50 was < 1 µM.

For the compound `N[C@@H]1C[C@H]2C(=O)N([C@H](CCC(=O)O)C(=O)NCc3ccc(Cl)c(Cl)c3)CCC(COc3cccc(F)c3)N2C1` (stereo not given in full) [US11583538, Example 77], the IC50 was < 1 µM.

For `COC(=O)CC[C@H](C(=O)NCc1ccc(Cl)c(Cl)c1)N1CCC(COc2cccc(F)c2)N2C[C@H](N)C[C@H]2C1=O` (stereo not given in full) [US11583538, Example 90], the IC50 is < 1 µM.

Regarding `N[C@@H]1C[C@H]2C(=O)N([C@H](CCC(=O)O)C(=O)NCc3ccc(Cl)c(Cl)c3)CCC(COc3ccccc3F)N2C1` (stereo not given in full) [US11583538, Example 79], the IC50 is < 1 µM.

As to `N[C@@H]1C[C@H]2C(=O)N([C@H](CCC(=O)O)C(=O)NCc3cc(Cl)c(Cl)c[n+]3[O-])CCC(CCc3ccccc3)N2C1` (stereo not given in full) [US11583538, Example 134], the IC50 was < 1 µM.

As for `CC(C)C[C@H](CNS(=O)(=O)c1ccc(Cl)c(Cl)c1)N1CCC(CCc2ccccc2)N2C[C@H](N)C[C@H]2C1=O` (stereo not given in full) [US11583538, Example 81], the IC50 was < 1 µM.

For `CC(C)C[C@H](C(=O)NCc1ccc(Cl)c(Cl)c1)N1CCC(C[S+]([O-])c2ccccc2)N2C[C@H](N)C[C@H]2C1=O` (stereo not given in full) [US11583538, Example 125A], the IC50 was < 1 µM.

In the case of `N[C@@H]1C[C@H]2C(=O)N([C@H](CSc3ccccc3O)C(=O)NCc3ccc(Cl)c(Cl)c3)CCC(CCc3ccccc3)N2C1` (stereo not given in full) [US11583538, Example 123], the IC50 was < 1 µM.

With `N[C@@H]1C[C@H]2C(=O)N([C@H](CS(=O)(=O)c3ccccc3O)C(=O)NCc3ccc(Cl)c(Cl)c3)CCC(CCc3ccccc3)N2C1` (stereo not given in full) [US11583538, Example 124], the IC50 was < 1 µM.
